Results taken from patent US6706740B2, “Fungicidal heterocyclic aromatic amides and their compositions, methods of use and preparation” (Dow AgroSciences LLC, priority 1999, dated 2004).
Read-outs that look alike come from different tables or passages of the source.

Tests used:
[1] = test system: Stagonospora nodorum (Leptosphaeria nodorum—LEPTNO); assay: In vitro fungal growth inhibition, Stagonospora nodorum (LEPTNO); format: cell-based; details: Leptosphaeria, read-out: LEPTNO in vitro Growth Inhibition
[2] = test system: Mycosphaerella graminicola (Septoria tritici—SEPTTR); assay: In vitro fungal growth inhibition, Mycosphaerella graminicola (SEPTTR); format: cell-based; details: Zymoseptoria tritici, read-out: SEPTTR in vitro Growth Inhibition
[3] = test system: Leptosphaeria nodorum—LEPTNO; assay: Glume Blotch of Wheat, in vivo whole plant, 24 Hour Protectant; details: for pest or weed control at 100 ppm: Leptosphaeria, read-out: LEPTNO in vivo 1 Day Protectant
[4] = test system: Phytophthora infestans—PHYTIN; assay: whole plant or invertebrate; format: in vivo; details: for pest or weed control at 100 ppm: Phytophthora, in Solanum lycopersicum, 24 h, read-out: PHYTIN in vivo 1 Day Protectant
[5] = test system: Phytophthora infestans (PHYTIN); assay: microbe, parasite or virus in culture; format: cell-based; details: Phytophthora infestans, read-out: PHYTIN in vitro Growth Inhibition
[6] = test system: Magnaporthe grisea (Pyricularia oryzae—PYRIOR); assay: microbe, parasite or virus in culture; format: cell-based; details: Pyricularia oryzae, read-out: PYRIOR in vitro Growth Inhibition
[7] = test system: Septoria tritici—SEPTTR; assay: Leaf Blotch of Wheat, in vivo whole plant, 24 Hour Protectant; details: Zymoseptoria tritici, 24 h, read-out: SEPTTR in vivo 1 Day Protectant
[8] = test system: Puccinia recondita—PUCCRT; assay: Brown Rust of Wheat, in vivo whole plant, 24 Hour Protectant; details: Puccinia, read-out: PUCCRT in vivo 1 Day Protectant
[9] = test system: Erysiphe graminis—ERYSGT; assay: Powdery Mildew of Wheat, in vivo whole plant, 24 Hour Protectant; details: Erysiphe, read-out: ERYSGT in vivo 1 Day Protectant
[10] = test system: Rhizoctonia solani (RHIZSO); assay: microbe, parasite or virus in culture; format: cell-based; details: Rhizoctonia solani, read-out: RHIZSO in vitro Growth Inhibition
[11] = test system: Ustilago maydis (USTIMA); assay: microbe, parasite or virus in culture; format: cell-based; details: Mycosarcoma maydis, read-out: USTIMA in vitro Growth Inhibition
[12] = wheat plants sprayed at 100 ppm, inoculated after 24 hours, control of fungal infection vs untreated plants
[13] = 100 ppm spray, 24 hour protectant, wheat, control of fungal infection vs untreated plants
[14] = 100 ppm spray, wheat, 24 hour protectant, control of fungal infection vs untreated plants
[15] = 100 ppm spray, wheat, 24 hour protectant, % control of fungal infection vs untreated plants

Compound	inhibition at 25 ppm ([1]; 25 ppm in the growth medium)	inhibition at 25 ppm ([2]; 25 ppm in the growth medium)	pest or weed control at 100 ppm [3, 12]	pest or weed control at 100 ppm [4]	inhibition at 25 ppm [5]	inhibition at 25 ppm [6]	pest or weed control at 100 ppm [7, 12]	pest or weed control at 100 ppm [8, 12]	pest or weed control at 100 ppm [9, 12]	inhibition at 25 ppm [10]	inhibition at 25 ppm [11]	melting point	inhibition at 25 ppm ([1]; 25 ppm in growth medium)	inhibition at 25 ppm ([2]; 25 ppm in growth medium)	also measured
C=C1COC(=O)[C@@H](NC(=O)c2nccc(OC)c2OC(C)=O)COC(=O)C1 [Compound 595]	< 80%	< 80%	25 to 74%	< 25%	< 80%	< 80%	< 25%	< 25%	< 25%	< 80%	< 80%	163 to 164 °C			
COc1cccc(CNC(=O)c2ncccc2O)c1OC [Compound 227]				< 25%	> 80%	< 80%				< 80%	< 80%	78 to 79 °C	< 80%	< 80%	pest or weed control at 100 ppm [3, 13]: < 25%; pest or weed control at 100 ppm [7, 13]: < 25%; pest or weed control at 100 ppm [8, 13]: < 25%; pest or weed control at 100 ppm [9, 13]: < 25%
CC(C)C(=O)O[C@H]1[C@H](C)OC(=O)[C@@H](NC(=O)c2cnn(C)c2O)COC(=O)[C@@H]1Cc1ccccc1 [Compound 556]	< 80%	< 80%	25 to 74%	< 25%	> 80%	< 80%	< 25%	25 to 74%	< 25%	< 80%	< 80%	195 °C (dec.)			
Cc1nc(O)c(C(=O)NC2CC(C)(C)CC(C)(C)C2)cc1Cl [Compound 530]	< 80%	< 80%	25 to 74%	< 25%	< 80%	< 80%	25 to 74%	25 to 74%	< 25%	< 80%	< 80%	329 to 331 °C			
COc1ccnc(C(=O)N[C@H]2COC(=O)[C@H](Oc3ccccc3)[C@@H](OC(=O)C(C)C)[C@H](C)OC2=O)c1O [Compound 403]				< 25%	< 80%	< 80%				< 80%	< 80%	194 to 195 °C	> 80%	> 80%	LEPTNO in vivo 1 Day Protectant [3, 14]: + +; pest or weed control at 100 ppm [7, 14]: 25 to 74%; pest or weed control at 100 ppm [8, 14]: 25 to 74%; pest or weed control at 100 ppm [9, 14]: < 25%
COc1ccnc(C(=O)NC2CCN(Cc3ccccc3)CC2)c1O.O=C(O)/C=C\C(=O)O [Compound 305]					< 80%	< 80%				< 80%	< 80%	145 to 147 °C			inhibition at 25 ppm [1]: < 80%; inhibition at 25 ppm [2]: < 80%; pest or weed control at 100 ppm ([3]; 24 h): < 25%; PHYTIN in vivo 1 Day Protectant ([4]; 100 ppm spray, 24 hour protectant, tomato, control of fungal infection vs untreated plants): + +; pest or weed control at 100 ppm [7]: < 25%; pest or weed control at 100 ppm ([8]; 24 h): < 25%; pest or weed control at 100 ppm ([9]; 24 h): < 25%
CC1(C)CC(NC(=O)c2cnccc2O)CC(C)(C)C1 [Compound 502]	< 80%	< 80%	25 to 74%	< 25%	< 80%	< 80%	25 to 74%	25 to 74%	< 25%	< 80%	< 80%	232 to 235 °C (dec.)			
COCCC(=O)Oc1c(OC)ccnc1C(=O)Nc1ccc(C(=O)Nc2cccc(C(F)(F)F)c2)cc1 [Compound 713]				< 25%	< 80%	< 80%				< 80%	< 80%	164 to 167 °C	< 80%	< 80%	pest or weed control at 100 ppm [3, 15]: 25 to 74%; pest or weed control at 100 ppm [7, 15]: < 25%; pest or weed control at 100 ppm [8, 15]: < 25%; pest or weed control at 100 ppm [9, 15]: < 25%
COCCC(=O)Oc1c(OC)ccnc1C(=O)Nc1cccc(C(=O)Nc2ccc(C(F)(F)F)cc2)c1 [Compound 714]				< 25%	< 80%	< 80%				< 80%	< 80%	187 to 189 °C	< 80%	< 80%	pest or weed control at 100 ppm [3, 15]: 25 to 74%; pest or weed control at 100 ppm [7, 15]: 25 to 74%; pest or weed control at 100 ppm [8, 15]: < 25%; pest or weed control at 100 ppm [9, 15]: < 25%
COc1ccnc(C(=O)Nc2ccc(C(=O)Oc3cccc(C(F)(F)F)c3)cc2)c1O [Compound 451]				< 25%	< 80%	> 80%				< 80%	< 80%	196 °C (dec.)	< 80%	< 80%	pest or weed control at 100 ppm [3, 14]: 25 to 74%; pest or weed control at 100 ppm [7, 14]: < 25%; pest or weed control at 100 ppm [8, 14]: 25 to 74%; pest or weed control at 100 ppm [9, 14]: < 25%
Cc1ccc(C(=O)NC2CC(C)(C)CC(C)(C)C2)c(O)n1 [Compound 524]	< 80%	< 80%	< 25%	< 25%	< 80%	< 80%	25 to 74%	< 25%	< 25%	< 80%	< 80%	307 to 308 °C			
COc1ccnc(C(=O)Nc2ccc(C(=O)Oc3cccc(C(F)(F)F)c3)cc2)c1OC(C)=O [Compound 715]				< 25%	< 80%	< 80%				< 80%	< 80%	166 to 169 °C	< 80%	< 80%	pest or weed control at 100 ppm [3, 15]: 25 to 74%; pest or weed control at 100 ppm [7, 15]: < 25%; pest or weed control at 100 ppm [8, 15]: 25 to 74%; pest or weed control at 100 ppm [9, 15]: < 25%
COc1ccnc(C(=O)Nc2ccc(NC(=O)c3cccc(C(F)(F)F)c3)cc2)c1O [Compound 453]				< 25%	< 80%	< 80%				< 80%	< 80%	240 to 242 °C	< 80%	< 80%	pest or weed control at 100 ppm [3, 14]: 25 to 74%; pest or weed control at 100 ppm [7, 14]: 25 to 74%; pest or weed control at 100 ppm [8, 14]: < 25%; pest or weed control at 100 ppm [9, 14]: < 25%
